In this test the target is MetAP-2 (Homo sapiens, UniProt P50579). Briefly: MetAP-2 activity measurement (coupled enzymatic reactions, substrate Met-Arg-Ser, photometric at 450 nm). The test is classed as biochemical. To be noted: read-out: IC50 enzyme (Inhibition of MetAP-2). In a few lines:
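Human MetAP-2 cleaves Met-Arg-Ser; the freed methionine is oxidized by L-amino acid oxidase, and the resulting H2O2 drives peroxidase oxidation of dianisidine, read continuously at 450 nm. Activity is taken as the slope in the visually linear region.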
MetAP-2, sequence (P50579 whole entry, species assumed): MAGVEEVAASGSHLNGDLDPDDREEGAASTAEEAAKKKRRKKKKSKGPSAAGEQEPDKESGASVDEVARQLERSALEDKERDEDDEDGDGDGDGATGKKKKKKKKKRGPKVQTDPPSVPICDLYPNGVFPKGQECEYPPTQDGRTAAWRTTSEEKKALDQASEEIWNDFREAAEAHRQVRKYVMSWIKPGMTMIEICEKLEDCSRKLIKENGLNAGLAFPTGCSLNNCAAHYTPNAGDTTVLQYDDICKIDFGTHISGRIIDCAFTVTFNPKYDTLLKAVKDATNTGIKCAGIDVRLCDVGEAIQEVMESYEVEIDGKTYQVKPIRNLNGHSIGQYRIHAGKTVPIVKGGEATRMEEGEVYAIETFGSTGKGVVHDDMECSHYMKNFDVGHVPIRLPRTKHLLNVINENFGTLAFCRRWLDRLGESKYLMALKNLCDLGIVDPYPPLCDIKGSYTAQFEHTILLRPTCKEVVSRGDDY
`FC(F)(F)c1cc(OC[C@H]2CCCN2c2ncnc3[nH]cnc23)c2cc(Cl)ccc2n1` [A105, 6-Chloro-4-[(R)-1-(9H-purin-6-yl)pyrrolidin-2-yl-methoxy]-2-trifluoromethylquinoline]: the IC50 was in the range of 0.01 to 1 µM.
As for `CCCCn1c(C)c(C(=O)OCC)c2cc(OC[C@H]3CCCN3c3ncnc4[nH]cnc34)ccc21` [A39, Ethyl 1-butyl-2-methyl-5-[(R)-1-(9H-purin-6-yl)-pyrrolidin-2-ylmethoxy]-1H-indole-3-carboxylate], the 50% inhibitory concentration (IC50) was in the range of 1 to 10 µM.
As for `Nc1ccc2cccc(OC[C@H]3CCCN3c3ncnc4[nH]cnc34)c2c1` [A144, 8-[(R)-1-(9H-Purin-6-yl)pyrrolidin-2-yl-methoxy]naphthalen-2-ylamine], the IC50 was 0.01 to 1 µM.
On to `CC(=O)N(Cc1ccn(C)n1)Cc1ccc(OC[C@H]2CCCN2c2ncnc3[nH]cnc23)c2ccccc12` [A99, N-(1-Methyl-1H-pyrazol-3-ylmethyl)-N-{4-[(R)-1-(9H-purin-6-yl)pyrrolidin-2-ylmethoxy]-naphthalen-1-ylmethyl}acetamide], for which the IC50 fell in the range of 0.01 to 1 µM.
The figure for `O=C(NCCN1CCOCC1)c1cc(OC[C@H]2CCCN2c2ncnc3[nH]cnc23)c2ccccc2n1` [A149, N-(2-Morpholin-4-ylethyl)-4-[(R)-1-(9H-purin-6-yl)pyrrolidin-2-ylmethoxy]quinoline-2-carboxamide] is more than 10 µM; for `F[C@@H]1C[C@H](COc2cccc3ccccc23)N(c2ncnc3[nH]cnc23)C1` [A26, 6-[(2R,4R)-4-Fluoro-2-(naphthalen-1-yl-oxymethyl)pyrrolidin-1-yl]-9H-purine] it is more than 10 µM; for `O=C1OCCC1CCOc1ccc2cccc(OC[C@H]3CCCN3c3ncnc4[nH]cnc34)c2c1` (stereo partly drawn) [A186, 3-(2-{8-[(R)-1-(9H-Purin-6-yl)pyrrolidin-2-yl-methoxy]naphthalen-2-yloxy}ethyl)dihydrofuran-2-one] it is 1 to 10 µM.
The figure for `OC1CCN(C2CCc3cccc(OC[C@H]4CCCN4c4ncnc5[nH]cnc45)c3C2)C1` (stereo partly drawn) [A169, 1-{8-[(R)-1-(9H-Purin-6-yl)pyrrolidin-2-yl-methoxy]-1,2,3,4-tetrahydronaphthalen-2-yl}pyrrolidin-3-ol] is 1 to 10 µM; for `Nn1ccc2c(N3CCC[C@@H]3COc3ccccc3F)ncnc21` [A24, 4-[(R)-2-(2-Fluorophenoxymethyl)pyrrolidin-1-yl]pyrrolo[2,3-d]pyrimidin-7-ylamine] it is more than 10 µM.
The figure for `CC(C)(C)OC(=O)N[C@H](CC(N)=O)C(=O)N1CCc2cccc(OC[C@H]3CCCN3c3ncnc4[nH]cnc34)c2C1` [A188, tert-Butyl ((R)-1-carbamoylmethyl-2-oxo-2-{8-[(R)-1-(9H-purin-6-yl)pyrrolidin-2-ylmethoxy]-3,4-dihydro-1H-isoquinolin-2-yl}ethyl)carbamate] is 1 to 10 µM; for `O=C(Cn1c(C(=O)NCCc2ccc(F)cc2)c(OC[C@H]2CCCN2c2ncnc3[nH]cnc23)c2cc(F)ccc21)NCCc1ccc(F)cc1` [A200, N-[2-(4-Fluorophenyl)ethyl]-5-fluoro-1-{[2-(4-fluorophenyl)ethylcarbamoyl]methyl}-3-[(R)-1-(9H-purin-6-yl)pyrrolidin-2-ylmethoxy]-1H-indole-2-carboxamide] it is more than 10 µM.
In the case of `COc1cc2c(OC[C@H]3CCCN3c3ncnc4[nH]cnc34)ncnc2cc1OCc1ccccc1` [A45, 7-Benzyloxy-6-methoxy-4-[(R)-1-(9H-purin-6-yl)-pyrrolidin-2-ylmethoxy]quinazoline], the IC50 was more than 10 µM.
For `CCCNC(=O)c1cc(OC[C@H]2CCCN2c2ncnc3[nH]cnc23)c2ccccc2n1` [A71, N-Propyl-4-[(R)-1-(9H-purin-6-yl)pyrrolidin-2-yl-methoxy]quinoline-2-carboxamide], the IC50 is 0.01 to 1 µM.
On to `CC(=O)c1cc2cccc(OC[C@H]3CCCN3c3ncnc4[nH]cnc34)c2o1` [A41, 1-{7-[(R)-1-(9H-Purin-6-yl)pyrrolidin-2-yl-methoxy]benzofuran-2-yl}ethanone], for which the IC50 is 0.01 to 1 µM.

For orientation: IC50 means the concentration needed to halve the response being measured.
